Tests used:
[1] = target: Glutathione S-transferase P (Homo sapiens, UniProt P09211); assay: Inhibitory activity against human Glutathione S-transferase P
[2] = Selectivity of compound for piGST to that of OvGST2

Glutathione S-transferase P, sequence (P09211 whole entry): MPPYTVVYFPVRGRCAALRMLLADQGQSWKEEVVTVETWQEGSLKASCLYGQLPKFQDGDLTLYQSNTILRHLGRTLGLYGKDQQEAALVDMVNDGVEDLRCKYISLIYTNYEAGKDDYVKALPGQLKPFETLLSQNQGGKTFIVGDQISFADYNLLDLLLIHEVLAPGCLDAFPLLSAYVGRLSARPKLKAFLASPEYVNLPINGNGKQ

SMILES | IC50 [1] [µM] | Selectivity [2]
CCCOC(=O)CC(SCC(NC(=O)CCC(N)C(=O)O)C(=O)NCC(=O)O)C(=O)OCCC (stereo unspecified) | > 250 | 
CC(=O)CC(SCC(NC(=O)CCC(N)C(=O)O)C(=O)NCC(=O)O)c1ccccc1 (stereo unspecified) | 155 | 
CC(C)C(=O)CC(SCC(NC(=O)CCC(N)C(=O)O)C(=O)NCC(=O)O)c1ccccc1 (stereo unspecified) | > 250 | > 7.8
NC(CCC(=O)NC(CSC1CCCC(=O)C1)C(=O)NCC(=O)O)C(=O)O (stereo unspecified) | > 250 | > 1.1
CCCCOC(=O)CC(SCC(NC(=O)CCC(N)C(=O)O)C(=O)NCC(=O)O)C(=O)O (stereo unspecified) | 40.3 | 0.8

Now from value to compound:

IC50 [1] [µM] | Selectivity [2] | SMILES
217 |  | CCC(=O)CC(C)SCC(NC(=O)CCC(N)C(=O)O)C(=O)NCC(=O)O (stereo unspecified)
8.1 | 1.3 | CCCC(CC(C)=O)SCC(NC(=O)CCC(N)C(=O)O)C(=O)NCC(=O)O (stereo unspecified)
5.2 |  | CCC(CC(C)=O)SCC(NC(=O)CCC(N)C(=O)O)C(=O)NCC(=O)O (stereo unspecified)
208 |  | COC(=O)CC(SCC(NC(=O)CCC(N)C(=O)O)C(=O)NCC(=O)O)C(=O)OC (stereo unspecified)
> 250 |  | CC(=O)CC(SCC(NC(=O)CCC(N)C(=O)O)C(=O)NCC(=O)O)C(C)C (stereo unspecified)
> 250 | > 13.9 | NC(CCC(=O)NC(CSC(CC(=O)O)C(=O)O)C(=O)NCC(=O)O)C(=O)O (stereo unspecified)
